Consider 1 molecule from patent US20020123471A1, “LENTIVIRUS BASED VECTOR AND VECTOR SYSTEM” (priority 1997, published 2002).

SMILES strings stand for the structures.

The subject of the assay is SIV[SIV] or SIV[MLV] vector particles. Kind of assay: Inhibition of retroviral transfer of V1-luc into CEMx174 cells by reverse transcriptase inhibitor. It is filed as cell-based. The conditions noted are these: Simian immunodeficiency virus, CEMx174, read-out: transfer of V1-luc inhibited.

`Cc1cn([C@H]2C[C@H](N=[N+]=[N-])[C@@H](CO)O2)c(=O)[nH]c1=O` [Zidovudine, 3′-azido-2′,3′-dideoxythymidine]: the inhibition at 10 µM turned out to be 90%.
